Assay: Pharmacokinetics of released PEGylated protease inhibitor following P.O. administration of prodrugs in rats
Assay type: in vivo, male Sprague-Dawley rats
Parameters: AUCall Mean: concentration or dose not given beside the values; C24 Mean: unit not given here
Conditions: rats (n = 4-5); for C24 Mean: concentration at 24 hours
Description: Pharmacokinetic analysis of protease inhibitors described herein was conducted. To evaluate the pharmacokinetics of PEGylated protease inhibitor conjugates with releasable lipophilic attachments, test compounds were administered to male Sprague-Dawley rats.
At various times following test article administration, serial blood samples were collected from indwelling jugular vein catheters and transferred to micro-tubes containing 7.5 μL of 20% w/v K2EDTA as an anticoagulant. Following processing of the blood samples to plasma (10 minutes at 10000 rpm, Centrifuge Model: Kubota 3500), plasma concentrations of the test article or corresponding PEGylated molecule released from the test article was measured using LC-MS/MS methods. Pharmacokinetic parameters were estimated using noncompartmental methods.

[1] = mPEG3-atazanavir in plasma after PO administration of mPEG3-ATV or of the listed prodrug
[2] = mPEG6-atazanavir in plasma after PO administration of mPEG6-ATV or of the listed prodrug
[3] = mPEG5-atazanavir in plasma after PO administration of mPEG5-ATV or of the listed prodrug

Compound	AUCall Mean [2] [ng·h/mL]	Cmax Mean [2] [ng/mL]	MRT last Mean [2] [h]	Tmax Median [2] [h]	AUCall Mean [3] [ng·h/mL]	Cmax Mean [3] [ng/mL]	MRT last Mean [3] [h]	Tmax Median [3] [h]	also measured
COCCOCCOCCOC(=O)N[C@H](C(=O)N[C@@H](Cc1ccccc1)[C@H](CN(Cc1ccc(-c2ccccn2)cc1)NC(=O)[C@@H](NC(=O)OC)C(C)(C)C)OP(=O)(O)O)C(C)(C)C [mPEG3-ATV-phosphate, mPEG3-atazanavir phosphate]									AUCall Mean [1]: 16.8 ng·h/mL; Cmax Mean [1]: 1.66 ng/mL; MRT last Mean [1]: 7.37 h; Tmax* Median [1]: 1.25 h
CCOCOC(CN(Cc1ccc(-c2ccccn2)cc1)NC(=O)C(NC(=O)OC)C(C)(C)C)C(Cc1ccccc1)NC(=O)C(NC(=O)OCCOCCOCCOCCOCCOCCOC)C(C)(C)C (stereo not drawn) [Methyl ethyl ether mPEG6-ATV, mPEG6-Atazanavir Methyl Ethyl Ether]	202	38.3	10.1	2.00					C24 Mean [2]: 0.00
COCCOCCOCCOCCOCCOCCOC(=O)NC(C(=O)NC(Cc1ccccc1)C(CN(Cc1ccc(-c2ccccn2)cc1)NC(=O)C(NC(=O)OC)C(C)(C)C)OC(=O)C(CC(C)C)NC(=O)C(N)CC(C)C)C(C)(C)C.Cl (stereo not drawn) [Leu-Leu-mPEG6-ATV, Leu-Leu-mPEG6-Atazanavir Hydrochloride]	152	14.2	13.1	1.50					
COCCOCCOCCOCCOCCOC(=O)NC(C(=O)NC(Cc1ccccc1)C(CN(Cc1ccc(-c2ccccn2)cc1)NC(=O)C(NC(=O)OC)C(C)(C)C)OC(=O)CNC(=O)C(N)CC(C)C)C(C)(C)C.Cl (stereo not drawn) [Leu-Gly-mPEG5-Atazanavir HCl, Leu-Gly-mPEG5-Atazanavir Hydrochloride]					344	19.5	11.3	12.0	C24 Mean [3]: 18.1
COCCOCCOCCOCCOCCOCCOC(=O)N[C@H](C(=O)N[C@@H](Cc1ccccc1)[C@@H](O)CN(Cc1ccc(-c2ccccn2)cc1)NC(=O)[C@@H](NC(=O)OC)C(C)(C)C)C(C)(C)C [PEG6-ATV, mPEG6-atazanavir]	97.6	26.8	4.93	0.250					
CCCC(=O)O[C@@H](CN(Cc1ccc(-c2ccccn2)cc1)NC(=O)[C@@H](NC(=O)OC)C(C)(C)C)[C@H](Cc1ccccc1)NC(=O)[C@@H](NC(=O)OCCOCCOCCOC)C(C)(C)C [C3H7CO-mPEG3-ATV, mPEG3-Atazanavir Butyrate]									C24 Mean [1]: 0.00; AUCall Mean [1]: 11.4 ng·h/mL; Cmax Mean [1]: 3.08 ng/mL; MRT last Mean [1]: 1.56 h; Tmax* Median [1]: 1.00 h
CCCCCC(=O)O[C@@H](CN(Cc1ccc(-c2ccccn2)cc1)NC(=O)[C@@H](NC(=O)OC)C(C)(C)C)[C@H](Cc1ccccc1)NC(=O)[C@@H](NC(=O)OCCOCCOCCOCCOCCOC)C(C)(C)C [C5H11CO-mPE5-ATV, C5H11CO-mPEG5-atazanavir]					23.7	7.38	2.42	0.500	
COCCOCCOCCOCCOCCOC(=O)N[C@H](C(=O)N[C@@H](Cc1ccccc1)[C@@H](O)CN(Cc1ccc(-c2ccccn2)cc1)NC(=O)[C@@H](NC(=O)OC)C(C)(C)C)C(C)(C)C [PEG5-ATV, mPEG5-atazanavir]					389	57.6	9.61	0.750	
COCCOCCOCCOC(=O)NC(C(=O)NC(Cc1ccccc1)C(CN(Cc1ccc(-c2ccccn2)cc1)NC(=O)C(NC(=O)OC)C(C)(C)C)OC(=O)C(N)C(C)C)C(C)(C)C.Cl [mPEG3-ATV-L-valine, mPEG3-Atazanavir-L-valine HCl]									AUCall Mean [1]: 70.4 ng·h/mL; Cmax Mean [1]: 11.8 ng/mL; MRT last Mean [1]: 4.45 h; Tmax* Median [1]: 0.500 h
CCOCO[C@@H](CN(Cc1ccc(-c2ccccn2)cc1)NC(=O)[C@@H](NC(=O)OC)C(C)(C)C)[C@H](Cc1ccccc1)NC(=O)[C@@H](NC(=O)OCCOCCOCCOCCOCCOC)C(C)(C)C [Methyl ethyl ether mPEG5-ATV, mPEG5-Atazanavir Methyl Ethyl Ether]					489	95.1	6.19	1.00	C24 Mean [3]: 2.7
COCCOCCOCCOCCOCCOCCOC(=O)N[C@H](C(=O)N[C@@H](Cc1ccccc1)[C@H](CN(Cc1ccc(-c2ccccn2)cc1)NC(=O)[C@@H](NC(=O)OC)C(C)(C)C)OC(=O)CNC(=O)[C@@H](N)CC(C)C)C(C)(C)C.Cl [Leu-Gly-mPEG6-ATV, Leu-Gly-mPEG6-Atazanavir Hydrochloride]	294	13.7	27.2	30.0					
CCC(=O)O[C@@H](CN(Cc1ccc(-c2ccccn2)cc1)NC(=O)[C@@H](NC(=O)OC)C(C)(C)C)[C@H](Cc1ccccc1)NC(=O)[C@@H](NC(=O)OCCOCCOCCOCCOCCOCCOC)C(C)(C)C [C2H5CO-mPEG6-ATV, mPEG6-Atazanavir Propionate]	13.2	1.86	8.28	2.00					
CCC(=O)OC(CN(Cc1ccc(-c2ccccn2)cc1)NC(=O)C(NC(=O)OC)C(C)(C)C)C(Cc1ccccc1)NC(=O)C(NC(=O)OCCOCCOCCOCCOCCOC)C(C)(C)C (stereo not drawn) [C2H5CO-mPEG5-ATV, mPEG5-Atazanavir Propionate]					39.1	6.90	4.04	0.750	
COCCOCCOCCOC(=O)N[C@H](C(=O)N[C@@H](Cc1ccccc1)[C@H](CN(Cc1ccc(-c2ccccn2)cc1)NC(=O)[C@@H](NC(=O)OC)C(C)(C)C)OC(C)=O)C(C)(C)C [Acetyl-mPEG3-ATV, O-Acetyl-mPEG3-Atazanavir]									AUCall Mean [1]: 5.63 ng·h/mL; Cmax Mean [1]: 2.43 ng/mL; MRT last Mean [1]: 1.01 h; Tmax* Median [1]: 0.750 h

Second part, led by results:

AUCall Mean [2] [ng·h/mL]	Cmax Mean [2] [ng/mL]	MRT last Mean [2] [h]	Tmax Median [2] [h]	AUCall Mean [3] [ng·h/mL]	Cmax Mean [3] [ng/mL]	MRT last Mean [3] [h]	Tmax Median [3] [h]	Compound	also measured
194	5.11	24.3	7.00					COCCOCCOCCOCCOCCOCCOC(=O)NC(C(=O)NC(Cc1ccccc1)C(CN(Cc1ccc(-c2ccccn2)cc1)NC(=O)C(NC(=O)OC)C(C)(C)C)OC(=O)CNC(=O)C(N)C(C)C)C(C)(C)C.Cl (stereo not drawn) [Val-Gly-mPEG6-ATV, Val-GIy-mPEG6-Atazanavir Hydrochloride]	
207	19.9	10.3	1.50					CCOC(=O)OC(CN(Cc1ccc(-c2ccccn2)cc1)NC(=O)C(NC(=O)OC)C(C)(C)C)C(Cc1ccccc1)NC(=O)C(NC(=O)OCCOCCOCCOCCOCCOCCOC)C(C)(C)C (stereo not drawn) [mPEG6-ATV-Ethyl Carbonate, mPEG6-Atazanavir Ethyl Carbonate]	C24 Mean [2]: 4.39
12.1	1.23	23.4	6.13					COCCOCCOCCOCCOCCOCCOC(=O)NC(C(=O)NC(Cc1ccccc1)C(CN(Cc1ccc(-c2ccccn2)cc1)NC(=O)C(NC(=O)OC)C(C)(C)C)OP(=O)(O)O)C(C)(C)C (stereo not drawn) [mPEG6-ATV-phosphate, mPEG6-atazanavir phosphate]	
				32.7	3.74	4.92	2.00	COCCOCCOCCOCCOCCOC(=O)NC(C(=O)NC(Cc1ccccc1)C(CN(Cc1ccc(-c2ccccn2)cc1)NC(=O)C(NC(=O)OC)C(C)(C)C)OCOCCOC)C(C)(C)C (stereo not drawn) [mPEG5-ATV-Methyl ethyl methyl ether, mPEG5-Atazanavir Methyl Ethyl Methyl Ether]	
				23.1	1.52	10.9	7.00	COCCOCCOCCOCCOCCOC(=O)N[C@H](C(=O)N[C@@H](Cc1ccccc1)[C@H](CN(Cc1ccc(-c2ccccn2)cc1)NC(=O)[C@@H](NC(=O)OC)C(C)(C)C)OP(=O)(O)O)C(C)(C)C [mPEG5-ATV-phosphate, mPEG5-atazanavir phosphate]	
				9.14	1.09	6.89	1.00	COCCOCCOCCOCCOCCOC(=O)NC(C(=O)NC(Cc1ccccc1)C(CN(Cc1ccc(-c2ccccn2)cc1)NC(=O)C(NC(=O)OC)C(C)(C)C)OC(=O)C(N)C(C)C)C(C)(C)C.Cl [mPEG5-ATV-L-valine, mPEG5-Atazanavir-L-valine HCl]	
217	8.86	26.1	24.0					COCCOCCOCCOCCOCCOCCOC(=O)N[C@H](C(=O)N[C@@H](Cc1ccccc1)[C@H](CN(Cc1ccc(-c2ccccn2)cc1)NC(=O)[C@@H](NC(=O)OC)C(C)(C)C)OC(=O)CNC(=O)[C@@H](N)Cc1ccccc1)C(C)(C)C.Cl [Phe-Gly-mPEG6-ATV, Phe-Gly-mPEG6-Atazanavir Hydrochloride]	
				50.3	1.86	26.7	24.0	mPEG5-atazanavir-ethoxy-CME-Leu-Leu [mPEG5ATV-Ethoxy-CM-Leu-Leu]	
